Measurements reported in patent US5190741A, “Agents for diagnosing and treating melanomas, aromatic halogenated derivatives usable as such agents and their preparation” (Institut National de la Sante et de la Recherche Medicale …, priority 1989, dated 1993).
Where two headings read alike, the source gives them in different places.

Columns and labels:
B16 murine melanoma = experiment: Autoradiograms, C57 BL6 mice bearing B16; assay type: in vivo, mouse
Protocol: The autoradiograms are carried out in mice bearing grafted melanomas:
a. C57 BL6 bearing the B16 murine melanoma.
The animals bearing grafted tumors receive the labelled compounds in the form of the hydrochloride in saline solution (3.7 to 5×10^5 Bq/animal) in a caudal vein. At different time intervals after the administration of the compounds (from 15 minutes to 24 hours) the mice are anesthetized with ether and plunged into liquid nitrogen.
30 μm sections, parallel to a sagittal plane, are prepared in a freezing microtome (TS 260, SLEE) according to the protocol described by Ullberg.

[1] = Tissue distribution in Swiss nu/nu SSCUP mice bearing Dau; assay type: in vivo, human; conditions: mouse, iv, 3 umol/animal
Protocol: The study of the tissue distribution of the ^125 I labelled compounds was performed in mice bearing grafted melanomas (cf. autoradiograms above). […] The animals are sacrificed at different time intervals of 1 to 24 hours after the injection. The blood is collected and the principal organs are excised. Aliquots are weighed and the radioactivity of the samples is measured in a […] 1191 counter (analytic tracer). The counting yield for iodine 125 is 60%. The results are expressed: as a percentage of the injected dose bound per g of tissue (% ID/g); in the form of the ratios [formula] This ratio reflects more precisely the selectivity of a molecule for an organ (tables 2, 4, 6, 8, 10 and 12).

[2] = intestine, read-out: intestine % ID/g
[3] = kidney, read-out: kidney % ID/g
[4] = muscle, read-out: muscle % ID/g
[5] = pancreas, read-out: pancreas % ID/g
[6] = plasma, read-out: plasma % ID/g
[7] = spleen, read-out: spleen % ID/g
[8] = stomach, read-out: stomach % ID/g
[9] = submaxillary glands, read-out: submaxillary glands % ID/g

CCNCCNC(=O)c1ccc(I)cc1 [Derivative B, N-(2-ethylaminoethyl) 4-iodo benzamide]
darkening of the film at the tumor (B16 murine melanoma; 1 h after injection): qualitatively as great as after the injection of A
tumoral radioactive concentration (autoradiogram) (B16 murine melanoma; 4 h and particularly 6 h, compared with A): more intense tumoral radioactive concentration
tumor visibility on autoradiogram (B16 murine melanoma; 24 h after i.v.): still visible
radioactivity remaining in the organism (B16 murine melanoma; 24 h after injection): no radioactivity remains in the organism
tissue uptake at 1 h ([1]; blood, read-out: blood % ID/g): 0.89 %ID/g
tissue uptake at 2 h ([1]; blood, read-out: blood % ID/g): 0.93 %ID/g
tissue uptake at 4 h ([1]; blood, read-out: blood % ID/g): 0.3 %ID/g
tissue uptake at 6 h ([1]; blood, read-out: blood % ID/g): 0.53 %ID/g
tissue uptake at 24 h ([1]; blood, read-out: blood % ID/g): 0.009 %ID/g
tissue uptake at 8 h ([1]; blood, read-out: blood % ID/g): 0.11 %ID/g
tissue uptake at 12 h ([1]; blood, read-out: blood % ID/g): 0.015 %ID/g
tissue uptake at 1 h ([1]; brain, read-out: brain % ID/g): 1.28 %ID/g
tissue uptake at 2 h ([1]; brain, read-out: brain % ID/g): 1.25 %ID/g
tissue uptake at 4 h ([1]; brain, read-out: brain % ID/g): 0.63 %ID/g
tissue uptake at 6 h ([1]; brain, read-out: brain % ID/g): 0.22 %ID/g
tissue uptake at 24 h ([1]; brain, read-out: brain % ID/g): 0.002 %ID/g
tissue uptake at 8 h ([1]; brain, read-out: brain % ID/g): 0.14 %ID/g
tissue uptake at 12 h ([1]; brain, read-out: brain % ID/g): 0.01 %ID/g
tissue uptake at 1 h ([1]; eye, read-out: eye % ID/g): 0.51 %ID/g
tissue uptake at 2 h ([1]; eye, read-out: eye % ID/g): 0.5 %ID/g
tissue uptake at 4 h ([1]; eye, read-out: eye % ID/g): 0.21 %ID/g
tissue uptake at 6 h ([1]; eye, read-out: eye % ID/g): 0.19 %ID/g
tissue uptake at 24 h ([1]; eye, read-out: eye % ID/g): 0.008 %ID/g
tissue uptake at 8 h ([1]; eye, read-out: eye % ID/g): 0.06 %ID/g
tissue uptake at 12 h ([1]; eye, read-out: eye % ID/g): 0.01 %ID/g
tissue uptake at 1 h [1, 2]: 3.1 %ID/g
tissue uptake at 2 h [1, 2]: 2.57 %ID/g
tissue uptake at 4 h [1, 2]: 1.19 %ID/g
tissue uptake at 6 h [1, 2]: 1.05 %ID/g
tissue uptake at 8 h [1, 2]: 0.36 %ID/g
tissue uptake at 12 h [1, 2]: 0.05 %ID/g
tissue uptake at 24 h [1, 2]: 0.01 %ID/g
tissue uptake at 1 h [1, 3]: 8.15 %ID/g
tissue uptake at 2 h [1, 3]: 6.17 %ID/g
tissue uptake at 4 h [1, 3]: 2.51 %ID/g
tissue uptake at 6 h [1, 3]: 1.07 %ID/g
tissue uptake at 24 h [1, 3]: 0.04 %ID/g
tissue uptake at 8 h [1, 3]: 0.42 %ID/g
tissue uptake at 12 h [1, 3]: 0.08 %ID/g
tissue uptake at 1 h ([1]; liver, read-out: liver % ID/g): 4.95 %ID/g
tissue uptake at 2 h ([1]; liver, read-out: liver % ID/g): 3.16 %ID/g
tissue uptake at 4 h ([1]; liver, read-out: liver % ID/g): 1.52 %ID/g
tissue uptake at 6 h ([1]; liver, read-out: liver % ID/g): 0.74 %ID/g
tissue uptake at 24 h ([1]; liver, read-out: liver % ID/g): 0.19 %ID/g
tissue uptake at 8 h ([1]; liver, read-out: liver % ID/g): 0.63 %ID/g
tissue uptake at 12 h ([1]; liver, read-out: liver % ID/g): 0.2 %ID/g
tissue uptake at 1 h ([1]; lungs, read-out: lungs % ID/g): 5.35 %ID/g
tissue uptake at 2 h ([1]; lungs, read-out: lungs % ID/g): 5.56 %ID/g
tissue uptake at 4 h ([1]; lungs, read-out: lungs % ID/g): 2.63 %ID/g
tissue uptake at 6 h ([1]; lungs, read-out: lungs % ID/g): 0.93 %ID/g
tissue uptake at 8 h ([1]; lungs, read-out: lungs % ID/g): 0.43 %ID/g
tissue uptake at 12 h ([1]; lungs, read-out: lungs % ID/g): 0.04 %ID/g
tissue uptake at 24 h ([1]; lungs, read-out: lungs % ID/g): 0.02 %ID/g
tissue uptake at 1 h [1, 4]: 1.04 %ID/g
tissue uptake at 2 h [1, 4]: 6.86 %ID/g
tissue uptake at 4 h [1, 4]: 0.41 %ID/g
tissue uptake at 6 h [1, 4]: 0.12 %ID/g
tissue uptake at 24 h [1, 4]: 0.002 %ID/g
tissue uptake at 8 h [1, 4]: 0.07 %ID/g
tissue uptake at 12 h [1, 4]: 0.008 %ID/g
tissue uptake at 1 h [1, 5]: 2.86 %ID/g
tissue uptake at 2 h [1, 5]: 2.13 %ID/g
tissue uptake at 4 h [1, 5]: 0.83 %ID/g
tissue uptake at 6 h [1, 5]: 0.4 %ID/g
tissue uptake at 8 h [1, 5]: 0.14 %ID/g
tissue uptake at 12 h [1, 5]: 0.08 %ID/g
tissue uptake at 24 h [1, 5]: 0.01 %ID/g
tissue uptake at 1 h [1, 6]: 0.71 %ID/g
tissue uptake at 2 h [1, 6]: 0.85 %ID/g
tissue uptake at 4 h [1, 6]: 0.28 %ID/g
tissue uptake at 6 h [1, 6]: 0.61 %ID/g
tissue uptake at 24 h [1, 6]: 0.009 %ID/g
tissue uptake at 8 h [1, 6]: 0.13 %ID/g
tissue uptake at 12 h [1, 6]: 0.02 %ID/g
tissue uptake at 1 h [1, 7]: 2.54 %ID/g
tissue uptake at 2 h [1, 7]: 2.02 %ID/g
tissue uptake at 4 h [1, 7]: 0.62 %ID/g
tissue uptake at 6 h [1, 7]: 0.33 %ID/g
tissue uptake at 8 h [1, 7]: 0.14 %ID/g
tissue uptake at 12 h [1, 7]: 0.05 %ID/g
tissue uptake at 24 h [1, 7]: 0.09 %ID/g
tissue uptake at 1 h [1, 8]: 2.38 %ID/g
tissue uptake at 2 h [1, 8]: 3.03 %ID/g
tissue uptake at 4 h [1, 8]: 1.23 %ID/g
tissue uptake at 6 h [1, 8]: 2 ± 0.253 %ID/g
tissue uptake at 8 h [1, 8]: 0.58 %ID/g
tissue uptake at 12 h [1, 8]: 0.1 %ID/g
tissue uptake at 24 h [1, 8]: 0.02 %ID/g
tissue uptake at 1 h [1, 9]: 4.28 %ID/g
tissue uptake at 2 h [1, 9]: 4.14 %ID/g
tissue uptake at 4 h [1, 9]: 1.68 %ID/g
tissue uptake at 6 h [1, 9]: 2.74 %ID/g
tissue uptake at 8 h [1, 9]: 0.39 %ID/g
tissue uptake at 12 h [1, 9]: 0.04 %ID/g
tissue uptake at 24 h [1, 9]: 0.02 %ID/g
tissue uptake at 1 h ([1]; tumor, read-out: tumor % ID/g): 1.19 %ID/g
tissue uptake at 2 h ([1]; tumor, read-out: tumor % ID/g): 1.27 %ID/g
tissue uptake at 4 h ([1]; tumor, read-out: tumor % ID/g): 0.93 %ID/g
tissue uptake at 6 h ([1]; tumor, read-out: tumor % ID/g): 0.34 %ID/g
tissue uptake at 24 h ([1]; tumor, read-out: tumor % ID/g): 0.007 %ID/g
tissue uptake at 8 h ([1]; tumor, read-out: tumor % ID/g): 0.12 %ID/g
tissue uptake at 12 h ([1]; tumor, read-out: tumor % ID/g): 0.02 %ID/g
